Data: PMC9848286, “Design, synthesis, and biological investigation of oxadiazolyl, thiadiazolyl, and pyrimidinyl linked antipyrine derivatives as potential non-acidic anti-inflammatory agents” (Journal of Enzyme Inhibition and Medicinal Chemistry, 2023)

Legend:
PGE2 = PGE2 level in paw tissue homogenate (ELISA); format: in vivo, rat; details: for PGE2 paw tissue level compared to the carrageenan group: rat paw 5 h after carrageenan, CLX 30, 4b 36, 4c 40 mg/kg i.p., P < 0.001, 0.05 and 0.001 respectively; for PGE2 paw tissue level in comparison to the CLX group: P < 0.001
Method: (§1) After overnight fasting, five groups of rats were randomly divided (n = 5). Group I (Control): injected only with the DMSO solution (1.2 ml/kg, i.p, 10% v/v of DMSO in sterile 0.9% saline solution). Group II (Carrageenan): injected with carrageenan [0.1 ml of a freshly prepared solution of carrageenan (1% w/v in sterile 0.9% saline solution) into the sub-plantar region of the right hind paw] and the DSMO solution. Group III (CLX): injected the standard drug CLX (30 mg/kg, i.p, 2.5% w/v in the DMSO solution). Group IV (4 b) injected the test drug 4 b (36 mg/kg, i.p, 2% w/v in the vehicle). Group V (4c): injected the test drug 4c (40 mg/kg, i.p, 2% w/v in the DMSO solution). The selected doses of 4 b and 4c were equimolar to 30 mg/kg CLX. One hour after treatments, edema caused by carrageenan injection as described above. A digital vernier caliper (Elora, Germany) was used to measure the thickness of the paw right prior to injection of carrageenan and thereafter at 1, 2, 3, 4, and 5 h.
(§2) After five hours from carrageenan injection, the rats were euthanized using […] with removal of the inflamed paws. Tissues of rat hind-paw’s pad were collected, and 5-mm pieces were homogenised in iced phosphate buffer saline (pH 7.4) on ice. Next, the prepared homogenate was centrifuged (10,000 g, 15 min, 4 °C) and the obtained supernatant was collected for additional analysis. The remaining tissue was fixed in formalin (10% v/v) for 24 h after which it was inserted in paraffin wax.
(§3) Levels of prostaglandin E2 (PGE2) and tumour necrosis factor-alpha (TNF-α) were measured in paw tissue homogenate using ELISA kits (Cusabio Technology LLC, TX, United States) and as per the guidelines provided by the manufacturer.

[1] = tested on: carrageenan-injected rat paw tissue; assay: Histopathological (H&E) inflammation scoring of carrageenan-inflamed paw tissue; format: in vivo; details: rat paw 5 h after carrageenan; CLX 30, 4b 36, 4c 40 mg/kg i.p.; significant (P < 0.05) only with CLX
Method: as §1, §2
(§4) Paraffinized tissue sections were dewaxed in xylene and mounted on slides then […] with hematoxylin-eosin (H&E) for histopathological evaluation of inflammation. Inflammation score from 0 to 5 was given as follows: 0,1,2,3,4, and 5 if there is no, mild, mild/moderate, moderate, moderate/severe, and severe inflammation, respectively.[48] […] Immunostained sections were scored as follows: 0,1, 2 and 3 if there is no, weak, moderate, and strong staining effect, respectively.[49]

NF-κB = assay: Immunohistochemistry of NF-κB p65 expression in paw tissue; format: in vivo; details: rat paw 5 h after carrageenan; CLX 30, 4b 36, 4c 40 mg/kg i.p.; significant (P < 0.05) only with CLX
Method: as §1, §2, §4

TNF-α = TNF-α level in paw tissue homogenate (ELISA); format: in vivo, rat; details: for TNF-α paw tissue level compared to the carrageenan group: rat paw 5 h after carrageenan, CLX 30, 4b 36, 4c 40 mg/kg i.p., P < 0.001; for TNF-α lowering effect compared with CLX: P < 0.01
Method: as §1, §2, §3

[2] = tested on: carrageenan-induced paw edoema; assay: Carrageenan-induced rat paw edoema, paw swelling; format: in vivo; details: rats, i.p. 1 h before carrageenan; CLX 30 mg/kg, 4b 36 mg/kg, 4c 40 mg/kg; 1-5 h
From the text: The anti-inflammatory activity of the two selected compounds from the above screening, 4b and 4c was scrutinized in vivo using a paw edema model produced by carrageenan. Male Sprague Dawley rats (180–200 g) were obtained from Vacsera (Giza, Egypt) and maintained at rtunfettered access to food and water in a light-controlled space with a twelve-hour light/dark cycle. The research ethics committee at Mansoura University, Egypt examined and authorized the experiments (code number: 2022–78).
as §1
The paw edoema (E%) and edoema inhibition rate (I%) were calculated as follow: E%=B−A/A×100,
A: paw thickness (mm) just before carrageenan injection and B: paw thickness (mm) at different time intervals after carrageenan injection: I%=Ec−Et/Ec×100,
Ec: mean paw edoema of the carrageenan group and Et is the paw odema of the tested groups.

[3] = design: method as in PMID 29426771, PMID 11600237, PMID 33266208, PMID 19084415, PMID 35423143; details: Figure 1; cited from earlier work
nitric oxide (NO) = assay: NO content in paw tissue homogenate (colorimetric kit); format: in vivo, rat; details: for NO paw tissue content compared to CLX: P < 0.01
Method: as §1, §2
Contents of malondialdehyde (MDA) as a lipid peroxidation product, and nitric oxide (NO) as anitrosative product, were measured in paw tissue homogenate using colorimetric commercial kits (Biodiagnostic, Giza, Egypt) and as per the guidelines provided by the manufacturer.

COX-1 = biological target: T1, COX-1 (Ovis aries, UniProt P05979); assay: In vitro COX-1 inhibition, colorimetric screening assay kit; details: for HillSlope (best-fit value), COX-1 inhibition / LogIC50 (best-fit value), COX-1 inhibition: supplementary dose-response curve
T1 sequence (P05979 25-600): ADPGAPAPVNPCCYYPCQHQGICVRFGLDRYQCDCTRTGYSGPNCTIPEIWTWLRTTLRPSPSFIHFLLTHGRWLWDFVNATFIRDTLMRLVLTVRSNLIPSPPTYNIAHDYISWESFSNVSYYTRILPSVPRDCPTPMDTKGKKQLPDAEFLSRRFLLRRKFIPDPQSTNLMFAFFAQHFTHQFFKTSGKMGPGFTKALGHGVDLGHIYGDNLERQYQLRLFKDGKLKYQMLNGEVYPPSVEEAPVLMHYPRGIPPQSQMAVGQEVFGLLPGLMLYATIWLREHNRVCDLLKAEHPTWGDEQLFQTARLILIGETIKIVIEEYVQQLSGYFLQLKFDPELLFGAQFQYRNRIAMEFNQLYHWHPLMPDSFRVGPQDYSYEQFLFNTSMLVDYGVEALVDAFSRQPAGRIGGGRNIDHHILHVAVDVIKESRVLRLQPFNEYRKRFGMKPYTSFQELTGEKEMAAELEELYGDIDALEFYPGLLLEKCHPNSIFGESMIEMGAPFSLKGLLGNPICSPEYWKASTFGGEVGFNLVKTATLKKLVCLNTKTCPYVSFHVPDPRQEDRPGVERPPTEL
Method: (§5) This assay examined the inhibitory potency of the target structures towardboth COX isoforms via colorimetric screening assay kit (Cayman Chemical, MI, United States) based on the directions provided by the manufacturer. ELISA reader Thermo Scientific Multiskan® EX (Thermo scientific, United States) was used. […] Serial dilutions of CLX, as a reference standard, and tested compounds at concentrations of 1000, 300, 100, 30, 10, 3, 1, and 0.30 nM were used in the assay. IC50 of the tested compounds were determined using three different experiments. The selectivity (SI) of each ompound was measured using the COX-2/COX-1 ratio, which compares the IC50 of COX-2 and COX-1.

COX-2 [4] = assay: Immunohistochemistry of COX-2 expression in paw tissue; format: in vivo; details: rat paw 5 h after carrageenan; CLX 30, 4b 36, 4c 40 mg/kg i.p.
Method: After overnight fasting, five groups of rats were randomly divided (n = 5). Group I (Control): injected only with the DMSO solution (1.2 ml/kg, i.p, 10% v/v of DMSO in sterile 0.9% saline solution). Group II (Carrageenan): injected with carrageenan [0.1 ml of a freshly prepared solution of carrageenan (1% w/v in sterile 0.9% saline solution) into the sub-plantar region of the right hind paw] and the DSMO solution. […] One hour after treatments, edema caused by carrageenan injection as described above. A digital vernier caliper (Elora, Germany) was used to measure the thickness of the paw right prior to injection of carrageenan and thereafter at 1, 2, 3, 4, and 5 h.
After five hours from carrageenan injection, the rats were euthanized using surgical dislocation with removal of the inflamed paws. Tissues of rat hind-paw’s pad were collected, and 5-mm pieces were homogenised in iced phosphate buffer saline (pH 7.4) on ice. […]
The other set of sections were immunostained to examine expression levels of COX-2 and nuclear factor kappa B (NF-κB p65) using monoclonal antibodies (Thermo Fisher Scientific, MA, United States) and as per the guidelines provided by the manufacturer. Immunostained sections were scored as follows: 0,1, 2 and 3 if there is no, weak, moderate, and strong staining effect, respectively.[49]

COX-2 [5] = biological target: T2, COX-2 (Homo sapiens, UniProt P35354); assay: In vitro COX-2 inhibition, colorimetric screening assay kit; details: for (SI) in vitro COX-2 selectivity index: COX-1 IC50/COX-2 IC50; for HillSlope (best-fit value), COX-2 inhibition / LogIC50 (best-fit value), COX-2 inhibition: supplementary dose-response curve
T2 sequence (P35354 18-604): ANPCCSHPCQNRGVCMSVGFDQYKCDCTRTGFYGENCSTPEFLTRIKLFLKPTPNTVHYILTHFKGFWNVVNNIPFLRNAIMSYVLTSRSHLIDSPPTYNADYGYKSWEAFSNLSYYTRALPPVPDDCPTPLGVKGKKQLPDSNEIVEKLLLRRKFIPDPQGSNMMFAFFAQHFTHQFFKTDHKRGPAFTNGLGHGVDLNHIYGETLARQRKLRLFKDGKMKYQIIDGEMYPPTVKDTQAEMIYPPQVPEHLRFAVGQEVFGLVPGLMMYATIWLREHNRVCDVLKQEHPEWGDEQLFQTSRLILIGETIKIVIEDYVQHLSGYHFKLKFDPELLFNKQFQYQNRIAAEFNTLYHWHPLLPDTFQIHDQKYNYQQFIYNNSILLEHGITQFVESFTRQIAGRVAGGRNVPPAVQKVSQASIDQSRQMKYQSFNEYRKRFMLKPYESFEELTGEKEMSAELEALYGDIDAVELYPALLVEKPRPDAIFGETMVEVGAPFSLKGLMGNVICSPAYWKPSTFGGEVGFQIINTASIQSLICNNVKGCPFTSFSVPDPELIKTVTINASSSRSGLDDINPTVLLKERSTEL
Method: as §5

COX-2 [6] = details: printed in Figure 1, comparator of an unlabelled compound; cited from earlier work

Compound | PGE2 paw tissue level compared to the carrageenan group (PGE2) | semi-quantitative inflammation score (H&E) compared to the carrageenan group [1] | NF-κB positive expression score compared to the carrageenan group (NF-κB) | TNF-α paw tissue level compared to the carrageenan group (TNF-α) | percentage of paw swelling compared to the carrageenan group [2] | PGE2 paw tissue level in comparison to the CLX group (PGE2) | melting point [°C] | NO paw tissue content compared to CLX (nitric oxide (NO)) | TNF-α lowering effect compared with CLX (TNF-α) | IC50 (COX-1) [µM] | HillSlope (best-fit value), COX-1 inhibition (COX-1) | LogIC50 (best-fit value), COX-1 inhibition (COX-1) | COX-2 positive expression score compared to the carrageenan group (COX-2 [4]) | IC50 (COX-2 [5]) [µM] | (SI) in vitro COX-2 selectivity index (COX-2 [5]) | HillSlope (best-fit value), COX-2 inhibition (COX-2 [5]) | LogIC50 (best-fit value), COX-2 inhibition (COX-2 [5]) | other results
Cc1ccc(-c2cc(C(F)(F)F)nn2-c2ccc(S(N)(=O)=O)cc2)cc1 [Celecoxib, reference compound] | reduced | decreased | decreased | decrease | marked lower percentages of paw swelling | – | – | – | – | – | – | – | – | – | – | – | – | –
CC(=O)Nc1nnc(SCC(=O)Nc2c(C)n(C)n(-c3ccccc3)c2=O)s1 [Compound A] | – | – | – | – | – | – | – | – | – | – | – | – | – | – | – | – | – | more active than diclofenac Na as antiinflammatory [3]: 46%
Cc1c(NC(=O)CSc2nnc(-c3ccc(Br)cc3)o2)c(=O)n(-c2ccccc2)n1C [4c, 2-((5–(4-Bromophenyl)-1,3,4-oxadiazol-2-yl)thio)-N-(1,5-dimethyl-3-oxo-2-phenyl-2,3-dihydro-1H-pyrazol-4-yl)acetamide] | reduced | decreased | decreased | decrease | marked lower percentages of paw swelling | higher levels | 173 to 175 | lower | higher | 0.13 ± 0.0023 | -0.4106 | 2.112 Log (nM) | decreased | 0.0698 ± 0.00214 | 1.86 | -0.3652 | 1.844 Log (nM) | PGE2 paw tissue level compared to the 4b group (PGE2; P < 0.05): lower; NO paw tissue content compared to 4 b (nitric oxide (NO); P < 0.05): lower
Cc1c(NC(=O)CSc2nnc(-c3ccc(Cl)cc3)o2)c(=O)n(-c2ccccc2)n1C [4b, 2-((5–(4-Chlorophenyl)-1,3,4-oxadiazol-2-yl)thio)-N-(1,5-dimethyl-3-oxo-2-phenyl-2,3-dihydro-1H-pyrazol-4-yl)acetamide] | reduced | decreased | decreased | decrease | marked lower percentages of paw swelling | higher levels | 190 to 192 | higher | higher | 0.2385 ± 0.00208 | -0.4124 | 2.378 Log (nM) | decreased | 0.0538 ± 0.00205 | 4.44 | -0.2859 | 1.730 Log (nM) | –
Cc1cnc(NC(=O)C2=C(O)c3ccccc3S(=O)(=O)N2C)s1 [Meloxicam] | – | – | – | – | – | – | – | – | – | – | – | – | – | – | – | – | – | % inhibition against COX-2 (COX-2 [6]): 44.95%
